± gives the standard deviation of the averaged measurements.
Columns and labels:
Assay in all cases: pIC50, kinobeads binding competition
Conditions in all cases: cell material: Jurkat lysate
AKT1 = AKT1 (UniProt P31749)
NEK7 = NEK7 (UniProt Q8TDX7)
PRKD2 = biological target: T1, PRKD2 (UniProt Q9BZL6)
T1 sequence (whole entry): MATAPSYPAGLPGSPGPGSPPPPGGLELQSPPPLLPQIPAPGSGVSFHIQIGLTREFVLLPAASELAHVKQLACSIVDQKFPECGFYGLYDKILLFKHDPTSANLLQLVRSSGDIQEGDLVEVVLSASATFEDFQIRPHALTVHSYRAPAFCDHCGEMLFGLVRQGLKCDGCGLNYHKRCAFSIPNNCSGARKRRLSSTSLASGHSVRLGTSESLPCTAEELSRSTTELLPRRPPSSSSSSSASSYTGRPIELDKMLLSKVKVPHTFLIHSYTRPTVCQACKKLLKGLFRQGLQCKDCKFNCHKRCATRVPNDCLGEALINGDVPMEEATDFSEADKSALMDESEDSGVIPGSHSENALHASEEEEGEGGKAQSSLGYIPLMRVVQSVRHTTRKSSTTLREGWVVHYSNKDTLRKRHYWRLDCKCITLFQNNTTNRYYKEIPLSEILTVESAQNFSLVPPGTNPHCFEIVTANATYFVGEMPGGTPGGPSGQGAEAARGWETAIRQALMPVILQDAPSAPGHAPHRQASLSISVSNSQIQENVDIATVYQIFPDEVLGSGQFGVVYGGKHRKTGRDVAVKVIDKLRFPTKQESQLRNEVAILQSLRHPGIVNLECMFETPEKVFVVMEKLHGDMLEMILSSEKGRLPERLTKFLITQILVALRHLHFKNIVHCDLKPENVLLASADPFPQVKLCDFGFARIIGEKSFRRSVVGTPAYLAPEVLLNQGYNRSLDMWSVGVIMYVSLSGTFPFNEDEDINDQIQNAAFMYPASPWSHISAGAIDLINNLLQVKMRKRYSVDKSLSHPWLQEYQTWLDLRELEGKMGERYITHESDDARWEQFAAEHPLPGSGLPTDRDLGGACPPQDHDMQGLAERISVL

PRKG2 = biological target: T2, PRKG2 (UniProt Q13237)
T2 sequence (whole entry): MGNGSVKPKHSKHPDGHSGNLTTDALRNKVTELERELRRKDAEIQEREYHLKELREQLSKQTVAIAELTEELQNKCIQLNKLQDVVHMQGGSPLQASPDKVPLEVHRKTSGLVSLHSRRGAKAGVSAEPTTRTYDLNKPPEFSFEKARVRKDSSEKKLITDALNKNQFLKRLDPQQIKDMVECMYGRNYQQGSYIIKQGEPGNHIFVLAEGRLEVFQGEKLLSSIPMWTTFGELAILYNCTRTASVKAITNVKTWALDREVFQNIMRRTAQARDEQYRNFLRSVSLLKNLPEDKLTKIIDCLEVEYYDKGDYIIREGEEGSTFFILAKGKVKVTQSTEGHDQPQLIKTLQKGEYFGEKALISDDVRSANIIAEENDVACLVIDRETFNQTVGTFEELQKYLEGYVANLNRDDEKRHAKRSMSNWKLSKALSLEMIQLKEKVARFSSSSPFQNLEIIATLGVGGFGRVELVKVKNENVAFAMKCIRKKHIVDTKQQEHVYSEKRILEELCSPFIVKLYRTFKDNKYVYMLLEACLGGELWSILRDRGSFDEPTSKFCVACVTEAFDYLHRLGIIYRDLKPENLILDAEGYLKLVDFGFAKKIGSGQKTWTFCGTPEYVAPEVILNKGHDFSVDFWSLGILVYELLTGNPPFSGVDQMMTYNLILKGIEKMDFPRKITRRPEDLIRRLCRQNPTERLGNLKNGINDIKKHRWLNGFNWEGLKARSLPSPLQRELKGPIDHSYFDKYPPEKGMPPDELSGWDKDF

STK35 = STK35 (UniProt Q8TDR2)
STK39 = STK39 (UniProt Q9UEW8)
TXK = biological target: T3, TXK (UniProt P42681)
T3 sequence (whole entry): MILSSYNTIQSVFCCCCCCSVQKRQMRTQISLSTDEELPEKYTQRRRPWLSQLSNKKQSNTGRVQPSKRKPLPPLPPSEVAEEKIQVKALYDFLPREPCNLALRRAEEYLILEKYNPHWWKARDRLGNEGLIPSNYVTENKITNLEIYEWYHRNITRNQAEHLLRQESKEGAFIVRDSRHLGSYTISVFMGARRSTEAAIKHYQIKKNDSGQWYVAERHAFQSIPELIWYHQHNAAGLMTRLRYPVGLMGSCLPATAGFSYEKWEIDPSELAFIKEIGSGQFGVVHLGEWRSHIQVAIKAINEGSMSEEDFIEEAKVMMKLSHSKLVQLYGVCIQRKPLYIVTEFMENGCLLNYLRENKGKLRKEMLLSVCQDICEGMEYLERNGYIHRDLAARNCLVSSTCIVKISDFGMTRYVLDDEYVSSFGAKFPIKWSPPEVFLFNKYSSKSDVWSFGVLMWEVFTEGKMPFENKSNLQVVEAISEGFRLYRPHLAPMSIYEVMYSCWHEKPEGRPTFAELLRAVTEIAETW

UniProt O96017 = biological target: UniProt O96017
UniProt P17252 = biological target: UniProt P17252
UniProt Q14289 = biological target: UniProt Q14289
UniProt Q16513 = biological target: UniProt Q16513
UniProt Q8TBX8 = biological target: T4, UniProt Q8TBX8
T4 sequence (whole entry): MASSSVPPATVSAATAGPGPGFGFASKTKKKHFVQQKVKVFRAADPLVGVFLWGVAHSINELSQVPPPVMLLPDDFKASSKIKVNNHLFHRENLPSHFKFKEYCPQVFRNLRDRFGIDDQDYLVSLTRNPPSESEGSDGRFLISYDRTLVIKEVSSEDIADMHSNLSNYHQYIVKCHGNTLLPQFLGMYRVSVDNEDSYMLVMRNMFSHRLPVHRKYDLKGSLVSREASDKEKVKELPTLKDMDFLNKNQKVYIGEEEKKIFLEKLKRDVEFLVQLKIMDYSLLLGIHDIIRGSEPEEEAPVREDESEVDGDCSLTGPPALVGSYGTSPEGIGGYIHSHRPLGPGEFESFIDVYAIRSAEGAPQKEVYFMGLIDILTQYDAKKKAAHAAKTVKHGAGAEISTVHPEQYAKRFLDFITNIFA

Sequence of UniProt Q14289 (Q14289 whole entry, looked up): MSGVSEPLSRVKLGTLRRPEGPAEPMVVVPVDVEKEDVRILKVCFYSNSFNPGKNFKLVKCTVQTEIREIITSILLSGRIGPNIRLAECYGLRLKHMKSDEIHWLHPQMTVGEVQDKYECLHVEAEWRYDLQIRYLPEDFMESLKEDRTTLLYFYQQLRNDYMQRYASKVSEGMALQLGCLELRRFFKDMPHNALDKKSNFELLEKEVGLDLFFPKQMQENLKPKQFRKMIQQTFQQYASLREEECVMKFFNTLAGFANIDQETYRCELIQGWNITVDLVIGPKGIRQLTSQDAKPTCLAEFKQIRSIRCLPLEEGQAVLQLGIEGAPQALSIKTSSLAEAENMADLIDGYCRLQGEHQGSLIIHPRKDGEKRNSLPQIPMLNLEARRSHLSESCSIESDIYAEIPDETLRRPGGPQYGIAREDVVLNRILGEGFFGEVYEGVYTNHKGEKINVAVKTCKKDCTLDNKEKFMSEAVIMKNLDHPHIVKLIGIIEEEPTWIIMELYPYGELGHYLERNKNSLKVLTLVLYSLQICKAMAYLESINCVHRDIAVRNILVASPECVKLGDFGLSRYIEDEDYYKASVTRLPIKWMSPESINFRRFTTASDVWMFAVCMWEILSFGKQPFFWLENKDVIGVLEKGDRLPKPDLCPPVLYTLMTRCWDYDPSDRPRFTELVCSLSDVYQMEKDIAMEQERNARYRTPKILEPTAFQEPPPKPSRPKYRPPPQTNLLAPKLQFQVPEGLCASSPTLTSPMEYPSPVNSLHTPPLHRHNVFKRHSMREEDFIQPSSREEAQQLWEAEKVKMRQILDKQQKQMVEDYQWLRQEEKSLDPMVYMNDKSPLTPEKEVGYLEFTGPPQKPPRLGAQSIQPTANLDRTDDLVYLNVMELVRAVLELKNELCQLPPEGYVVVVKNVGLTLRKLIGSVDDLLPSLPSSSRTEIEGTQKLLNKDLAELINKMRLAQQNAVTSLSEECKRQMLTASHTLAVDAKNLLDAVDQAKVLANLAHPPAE
Sequence of UniProt O96017 (O96017 whole entry): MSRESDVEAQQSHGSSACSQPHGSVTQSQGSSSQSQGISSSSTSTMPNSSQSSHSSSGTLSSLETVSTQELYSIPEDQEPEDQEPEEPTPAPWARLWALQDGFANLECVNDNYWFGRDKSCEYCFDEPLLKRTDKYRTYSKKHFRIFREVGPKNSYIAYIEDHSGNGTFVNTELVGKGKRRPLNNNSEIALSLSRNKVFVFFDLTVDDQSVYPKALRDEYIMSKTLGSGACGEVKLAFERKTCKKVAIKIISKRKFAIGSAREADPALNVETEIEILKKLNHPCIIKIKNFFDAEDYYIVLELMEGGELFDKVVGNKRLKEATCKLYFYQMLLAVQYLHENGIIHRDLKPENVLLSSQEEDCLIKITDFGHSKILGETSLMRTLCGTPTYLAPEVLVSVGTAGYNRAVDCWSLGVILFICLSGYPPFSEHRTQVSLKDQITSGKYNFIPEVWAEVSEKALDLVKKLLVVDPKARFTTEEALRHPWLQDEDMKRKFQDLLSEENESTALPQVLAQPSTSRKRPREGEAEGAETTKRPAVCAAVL
Sequence of NEK7 (Q8TDX7 whole entry, looked up): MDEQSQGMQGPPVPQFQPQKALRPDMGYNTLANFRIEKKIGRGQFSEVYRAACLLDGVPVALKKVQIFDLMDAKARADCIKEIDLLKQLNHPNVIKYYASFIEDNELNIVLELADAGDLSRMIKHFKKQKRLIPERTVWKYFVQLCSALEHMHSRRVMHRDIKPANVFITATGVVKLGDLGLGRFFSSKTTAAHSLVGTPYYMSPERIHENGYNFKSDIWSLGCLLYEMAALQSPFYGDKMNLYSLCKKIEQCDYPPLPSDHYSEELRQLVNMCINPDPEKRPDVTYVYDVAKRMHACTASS
Sequence of AKT1 (P31749 whole entry): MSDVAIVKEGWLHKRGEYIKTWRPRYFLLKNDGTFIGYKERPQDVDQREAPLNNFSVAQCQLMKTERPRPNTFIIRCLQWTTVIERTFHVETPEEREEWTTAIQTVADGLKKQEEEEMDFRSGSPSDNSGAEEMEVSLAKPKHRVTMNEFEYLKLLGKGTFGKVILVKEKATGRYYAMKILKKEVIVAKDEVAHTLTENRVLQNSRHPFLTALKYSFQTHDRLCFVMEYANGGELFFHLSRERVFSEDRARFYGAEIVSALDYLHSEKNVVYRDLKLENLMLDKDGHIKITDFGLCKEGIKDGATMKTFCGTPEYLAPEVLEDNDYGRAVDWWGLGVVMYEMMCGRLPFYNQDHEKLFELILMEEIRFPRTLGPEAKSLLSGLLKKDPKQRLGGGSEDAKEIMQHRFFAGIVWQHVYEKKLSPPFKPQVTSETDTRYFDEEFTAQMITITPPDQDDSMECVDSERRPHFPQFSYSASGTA
Sequence of STK35 (Q8TDR2 whole entry): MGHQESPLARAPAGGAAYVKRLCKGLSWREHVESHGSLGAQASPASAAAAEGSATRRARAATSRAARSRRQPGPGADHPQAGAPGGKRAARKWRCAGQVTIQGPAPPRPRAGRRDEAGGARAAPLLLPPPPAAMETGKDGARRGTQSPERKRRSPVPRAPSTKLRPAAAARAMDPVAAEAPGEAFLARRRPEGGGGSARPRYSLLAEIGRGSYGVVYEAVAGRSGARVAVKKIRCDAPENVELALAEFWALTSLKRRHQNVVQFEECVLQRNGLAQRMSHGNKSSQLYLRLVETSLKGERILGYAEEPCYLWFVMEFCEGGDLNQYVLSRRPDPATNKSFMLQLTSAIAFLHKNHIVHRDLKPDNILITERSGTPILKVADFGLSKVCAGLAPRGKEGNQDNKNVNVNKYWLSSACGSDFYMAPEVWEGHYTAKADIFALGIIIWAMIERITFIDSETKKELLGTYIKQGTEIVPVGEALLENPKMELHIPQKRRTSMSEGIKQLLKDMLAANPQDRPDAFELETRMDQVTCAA
Sequence of UniProt Q16513 (Q16513 whole entry, looked up): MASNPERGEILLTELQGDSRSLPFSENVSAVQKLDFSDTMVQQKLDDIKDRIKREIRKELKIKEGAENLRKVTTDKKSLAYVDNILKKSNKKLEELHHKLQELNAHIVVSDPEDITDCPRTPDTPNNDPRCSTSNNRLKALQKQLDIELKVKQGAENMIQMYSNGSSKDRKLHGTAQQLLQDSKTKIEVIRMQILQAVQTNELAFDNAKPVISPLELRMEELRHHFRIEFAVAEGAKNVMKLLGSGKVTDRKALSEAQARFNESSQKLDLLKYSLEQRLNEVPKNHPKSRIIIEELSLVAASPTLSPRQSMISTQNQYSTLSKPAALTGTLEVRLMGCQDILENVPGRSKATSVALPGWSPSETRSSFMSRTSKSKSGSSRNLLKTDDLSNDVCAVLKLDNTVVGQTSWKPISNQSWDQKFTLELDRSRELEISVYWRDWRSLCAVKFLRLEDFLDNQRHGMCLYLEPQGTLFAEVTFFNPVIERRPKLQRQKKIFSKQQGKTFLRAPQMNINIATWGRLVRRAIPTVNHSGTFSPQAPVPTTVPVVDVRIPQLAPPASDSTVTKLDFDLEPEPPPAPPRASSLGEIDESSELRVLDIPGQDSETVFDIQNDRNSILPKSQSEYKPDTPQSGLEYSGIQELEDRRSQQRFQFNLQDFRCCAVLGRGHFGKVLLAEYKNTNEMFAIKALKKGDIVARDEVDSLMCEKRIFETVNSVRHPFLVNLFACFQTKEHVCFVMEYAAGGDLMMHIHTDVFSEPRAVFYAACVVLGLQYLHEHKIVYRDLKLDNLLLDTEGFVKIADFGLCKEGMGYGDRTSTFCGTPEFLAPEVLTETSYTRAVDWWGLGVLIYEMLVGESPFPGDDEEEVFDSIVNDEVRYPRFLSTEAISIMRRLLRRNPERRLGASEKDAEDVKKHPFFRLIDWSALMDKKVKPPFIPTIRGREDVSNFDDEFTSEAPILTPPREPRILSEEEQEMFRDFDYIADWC

## CCc1cnn2c(NCc3ccc[n+]([O-])c3)cc(N3CCCC[C@H]3CCO)nc12 [dinaciclib]
AKT1
  pIC50: < 4.52
NEK7
  pIC50: < 4.52
PRKD2
  pIC50: < 4.52
PRKG2
  pIC50: < 4.52
STK35
  pIC50: < 4.52
STK39
  pIC50: 5.015 ± 0.021
TXK
  pIC50: < 4.52
UniProt O96017
  pIC50: < 4.52
UniProt P17252
  pIC50: < 4.52
UniProt Q14289
  pIC50: < 4.52
UniProt Q16513
  pIC50: < 4.52
UniProt Q8TBX8
  pIC50: < 4.52

Reference: the supplement of paper PMC12076712
